Reference: ChEMBL document CHEMBL5303304, “EUbOPEN Chemogenomics Library - IncuCyte” (2023)
Several values for one entry are separate records, joined by “and”; a condition that tells them apart may be missing. Equal entries are not always repeated.

Key:
Format in all cases: toxicity, cell-based
[1] = tested on: Fibroblast; test: Incucyte cell viability with human fibroblast; conditions: 10 µM, compound concentration 10 uM
[2] = tested on: HEK-293T; test: Incucyte cell viability with HEK293T; conditions: human, 10 µM, compound concentration 10 uM
[3] = tested on: U2OS; test: Incucyte cell viability with U2OS; conditions: human, 10 µM, compound concentration 10 uM
Further: unitless GR value; below 1 slowed growth and below 0 cell loss.

Row | SMILES | Growth Rate ([1]; 0 h, replicate number 2) | Growth Rate ([1]; 6 h, replicate number 1) | Growth Rate ([1]; 6 h, replicate number 2) | Growth Rate ([1]; 12 h, replicate number 1) | Growth Rate ([1]; 18 h, replicate number 2) | Growth Rate ([1]; 24 h, replicate number 1) | Growth Rate ([2]; 0 h, replicate number 1) | Growth Rate ([2]; 0 h, replicate number 2) | Growth Rate ([2]; 6 h, replicate number 2) | Growth Rate ([2]; 12 h, replicate number 2) | Growth Rate ([2]; 18 h, replicate number 2) | Growth Rate ([2]; 24 h, replicate number 2) | Growth Rate ([3]; 0 h, replicate number 2) | Growth Rate ([3]; 6 h, replicate number 1) | Growth Rate ([3]; 6 h, replicate number 2) | Growth Rate ([3]; 12 h, replicate number 1) | Growth Rate ([3]; 12 h, replicate number 2) | Growth Rate ([3]; 18 h, replicate number 2) | Growth Rate ([3]; 24 h, replicate number 1) | Growth Rate ([1]; 12 h, replicate number 2) | also measured
1 | CCN(C(=O)c1cc(F)ccc1Oc1cncnc1N1CC2(CCN(C[C@H]3CC[C@H](NS(=O)(=O)CC)CC3)CC2)C1)C(C)C [REVUMENIB] | 0.3 | 0.15 | 0.81 | 0.94 | 0.88 | 0.88 | -0.33 | 0.43 | 0.24 | 0.53 | 0.48 | 0.38 | 0.45 | 0.62 | 0.45 | 0.8 | 0.79 | 0.76 | 0.76 |  | Growth Rate ([1]; 18 h, replicate number 1): 0.79; Growth Rate ([1]; 24 h, replicate number 2): 0.93; Growth Rate ([3]; 0 h, replicate number 1): 0.19; Growth Rate ([3]; 18 h, replicate number 1): 0.77; Growth Rate ([3]; 24 h, replicate number 2): 0.67
2 | OCC1OC(n2cnc3cc(Cl)c(Cl)cc32)C(O)C1O (stereo unspecified) | -0.97 |  | 0.4 |  | 0.86 | 0.84 | 0.64 | 0.84 | 0.29 | 0.83 | 0.74 | 0.82 | 0.83 |  | 0.95 | 0.53 |  | 0.94 |  | 0.42 | Growth Rate ([1]; 0 h, replicate number 1): -0.9; Growth Rate ([1]; 24 h, replicate number 2): 0.78; Growth Rate ([2]; 6 h, replicate number 1): 0.33; Growth Rate ([2]; 12 h, replicate number 1): 0.43; Growth Rate ([2]; 18 h, replicate number 1): 0.48; Growth Rate ([2]; 24 h, replicate number 1): 0.55; Growth Rate ([3]; 18 h, replicate number 1): 0.33
3 | Cc1nn(-c2ccccc2)c(Nc2ccccc2C(=O)O)c1-c1cc2nccnc2c(F)c1F | -0.36 | 0.39 | -0.17 |  | 0.57 |  | 0.45 | -0.55 |  |  |  |  |  | 0.75 |  | 1 |  |  |  |  | Growth Rate ([1]; 24 h, replicate number 2): 0.79
4 | N#CN1CC[C@H](C(=O)Nc2nc3c(s2)CN(C(=O)CN=[N+]=[N-])CC3)C1 [8RK64] | 0.48 |  |  | 0.41 |  |  |  |  | 0.66 | 0.81 | 0.93 | 0.94 |  |  |  |  |  | 0.94 |  |  | Growth Rate ([2]; 12 h, replicate number 1): 0.99; Growth Rate ([3]; 24 h, replicate number 2): 0.89
5 | CCN1CCN(Cc2ccc(C(=O)Nc3ccc(C)c(Oc4ccc5c(c4)CC(=O)N5)c3)cc2C(F)(F)F)CC1.Cl.Cl | 0.42 | 0.34 | 0.36 | -0.1 | -0.3 | -0.38 |  |  | -0.1 | 0.11 | 0.15 | 0.14 | -0.46 |  | -0.37 | 0.23 | -0.14 | -0.02 | 0.51 | -0.08 | Growth Rate ([1]; 18 h, replicate number 1): -0.33; Growth Rate ([1]; 24 h, replicate number 2): -0.31; Growth Rate ([2]; 6 h, replicate number 1): -0.56; Growth Rate ([2]; 12 h, replicate number 1): -0.3; Growth Rate ([2]; 18 h, replicate number 1): -0.23; Growth Rate ([2]; 24 h, replicate number 1): -0.13; Growth Rate ([3]; 18 h, replicate number 1): 0.37; Growth Rate ([3]; 24 h, replicate number 2): -0.01
6 | C[C@H](CCC(=O)O)[C@H]1CC[C@H]2[C@@H]3CC[C@@H]4C[C@H](O)CC[C@]4(C)[C@H]3CC[C@]12C [LITHOCHOLIC ACID] | 0.27 |  |  |  | 0.87 |  | 0.14 |  | 0.73 | 0.67 | 0.77 |  |  | 0.93 |  | 0.68 |  |  | 0.83 | 0.76 | Growth Rate ([1]; 24 h, replicate number 2): 0.89; Growth Rate ([3]; 0 h, replicate number 1): -0.56; Growth Rate ([3]; 18 h, replicate number 1): 0.74
7 | Cc1cn([C@@H](C)CC#N)c(=O)c2cc(Cn3nc(C(F)F)cc3Cl)nn12 |  |  | 0.71 |  | 0.99 | 0.85 |  | 0.77 | 0.84 | 0.81 | 0.77 | 0.81 |  | 0.19 |  | 0.51 | 0.71 | 0.88 | 0.73 | 0.66 | Growth Rate ([2]; 6 h, replicate number 1): 0.53; Growth Rate ([2]; 12 h, replicate number 1): 0.72; Growth Rate ([2]; 18 h, replicate number 1): 0.89; Growth Rate ([2]; 24 h, replicate number 1): 0.92; Growth Rate ([3]; 18 h, replicate number 1): 0.6; Growth Rate ([3]; 24 h, replicate number 2): 0.78
8 | CCN1C(=O)c2cc(C)ccc2N(C)c2ncccc21 | -0.91 | 0.13 | 0.79 | 0.88 | 0.88 |  | 0.6 | 0.45 | 1 | 0.41 | 0.71 | 0.74 | 0.61 |  | 0.81 | 0.87 | 0.85 | 0.7 |  | 0.29 | Growth Rate ([1]; 0 h, replicate number 1): -1; Growth Rate ([1]; 18 h, replicate number 1): 0.79; Growth Rate ([2]; 6 h, replicate number 1): 0.52; Growth Rate ([2]; 12 h, replicate number 1): 0.32; Growth Rate ([2]; 18 h, replicate number 1): 0.42; Growth Rate ([2]; 24 h, replicate number 1): 0.65; Growth Rate ([3]; 24 h, replicate number 2): 0.8
9 | Cc1c(NC(=O)COc2ccc(Cl)cc2C(=O)c2cc(F)cc(C(F)(F)F)c2)ccc(C(=O)O)c1F [BI 2540] | -0.2 | 0.41 | 0.6 | 0.77 | 0.78 | 0.87 and 0.99 | 0.45 | 0.89 and 0.62 | 0.58 | 0.77 | 0.75 | 0.78 | 0.41 | 0.84 | -0.88 | 0.64 |  |  | 0.89 and 0.98 | 0.54 | Growth Rate ([1]; 18 h, replicate number 1): 0.85; Growth Rate ([1]; 24 h, replicate number 2): 0.97; Growth Rate ([2]; 6 h, replicate number 1): 0.71; Growth Rate ([2]; 18 h, replicate number 1): 0.97; Growth Rate ([2]; 24 h, replicate number 1): 0.91; Growth Rate ([3]; 0 h, replicate number 1): 0.29; Growth Rate ([3]; 18 h, replicate number 1): 0.91
10 | COCc1nc2cnc3cc(-c4c(C)noc4C)c(OC[C@H]4CCNC4)cc3c2n1[C@H](C)c1ccccc1 [GSK778] |  | 0.26 | -0.01 | 0.63 |  | 0.98 |  | 0.24 |  |  |  |  | -1 | 0.78 | -0.84 | -0.64 | 0.73 | 0.74 | 1 | 0.65 | Growth Rate ([1]; 18 h, replicate number 1): 0.73; Growth Rate ([3]; 0 h, replicate number 1): 0.09; Growth Rate ([3]; 24 h, replicate number 2): 0.7
11 | CCCn1cc(-c2cc(C3C(=O)N(CC)c4ccc(C(F)(F)F)cc4N(c4ccccc4)C3=O)cc(OC)c2O)cn1 (stereo unspecified) | 0.51 | 0.92 | -0.56 |  | 0.74 |  | 0.67 | 0.59 |  |  |  |  |  |  |  |  |  |  | 0.91 | 0.46 | Growth Rate ([1]; 24 h, replicate number 2): 0.85
12 | CNc1nc(Nc2ccc(C(=O)N3CCOCC3)cc2OC)nc2[nH]cc(Cl)c12 | -0.43 |  |  |  |  |  |  |  | -0.31 | -0.05 | 0.08 | 0.24 |  |  |  |  | 0.5 |  |  |  | Growth Rate ([1]; 0 h, replicate number 1): -0.95; Growth Rate ([2]; 6 h, replicate number 1): 0.03; Growth Rate ([2]; 12 h, replicate number 1): 0.06; Growth Rate ([2]; 18 h, replicate number 1): 0.26; Growth Rate ([2]; 24 h, replicate number 1): 0.27; Growth Rate ([3]; 0 h, replicate number 1): -0.99
13 | CO[C@H](C)CN1CC[C@@]2(C)c3ccc(O)cc3C[C@@H]1C2(C)C.Cl | 0.54 | 0.46 | 0.74 | 0.6 |  | 0.96 | 0.75 | 0.63 |  |  |  |  | 0.71 | 0.63 | 0.94 | 0.93 | 0.77 |  | 0.87 |  | Growth Rate ([1]; 18 h, replicate number 1): 0.79; Growth Rate ([3]; 18 h, replicate number 1): 0.87; Growth Rate ([3]; 24 h, replicate number 2): 0.82
14 | O=C(N[C@H](Cc1ccccc1)C(=O)O)c1cccc(OCc2cccnc2)c1.O=CO |  | 0.68 |  | 0.47 | 0.81 | 0.88 |  |  |  |  |  |  | 0.39 | 0.69 | 0.67 | 0.66 | 0.77 | 0.98 | 0.8 | 0.7 | Growth Rate ([1]; 18 h, replicate number 1): 0.93; Growth Rate ([2]; 6 h, replicate number 1): 0.73; Growth Rate ([2]; 18 h, replicate number 1): 1; Growth Rate ([3]; 0 h, replicate number 1): 0.75; Growth Rate ([3]; 24 h, replicate number 2): 0.86
